This note sets out measurements from patent EP2998292A1, “Naphthyl sulfonamide derivatives as KEAP-1 modulators for the treatment of diabetes, obesity, dyslipidemia and related disorders” (SANOFI, priority 2014, dated 2016).

The target of the test is T1, human Keap1 kelch domain (amino acids Ala321-Thr609) (Homo sapiens, UniProt Q14145).
T1 construct: human Keap1 kelch domain (amino acids Ala321-Thr609)
Description: Keap1-Nrf2 peptide binding assay (fluorescence polarisation). The following applies: binding of Keap1 kelch domain (20 nM) to fluorescently labeled Nrf2 peptide Alexa633-AFFAQLQLDEETGEFL (50 nM); ambient temperature. On the procedure:
Keap1-Nrf2 peptide binding assay
A fluorescence polarisation assay was used to measure binding of the human Keap1 kelch domain (amino acids Ala321-Thr609) to a fluorescently labeled peptide containing a Keap1 binding site of human Nrf2 (Alexa633-AFFAQLQLDEETGEFL; JPT Technologies, Berlin, Germany). Two microliters of test compound in reaction buffer (phosphate-buffered saline, 2 mM DL-dithiothreitol, 0.015 % (v/v) Brij-35) containing 6 % (v/v) DMSO were mixed with two microliters of the Keap1 kelch domain in reaction buffer in a black 384-well small volume microtiter plate and incubated at ambient temperature for 15 minutes. Thereafter, two microliters were added of the fluorescently labeled Nrf2 peptide in reaction buffer, and the mixture was incubated for a further 30 minutes at ambient temperature. Final concentrations of the Keap1 kelch domain and the fluorescently labeled Nrf2 peptide were 20 nM and 50 nM, respectively. Fluorescence polarization (FP) was measured at excitation and emission wavelengths of 635 nm and 660 nm, respectively. Positive controls for binding (two microliters of reaction buffer containing 6 % (v/v) DMSO instead of test compound in the same buffer) and negative controls (as positive controls, but without Keap1 kelch domain) were included on each microtiter plate. Data were expressed as percent-inhibition values: percent inhibition = 100⋅(1-(|FPcompound-FPnegative control|)/(|FPpositive control-FPnegative control|)) [formula]
IC50 values were determined by testing different compound concentrations and fitting the resulting percent-inhibition values to the following equation using XLFit4: percent inhibition = A + (B-A)/(1 + (((IC50)/([Compound])))^D) [formula]
Parameter A was set to zero, pre-fit values for parameters B and D were set to 100 and 1, respectively.
On the technique in general: Fluorescence polarisation rises when a labelled molecule tumbles more slowly, as on binding a larger partner.

The IC50 is the concentration needed to halve the response being measured. The low end stands for higher potency, the high end for lower potency.

T1 sequence (Q14145 321-609): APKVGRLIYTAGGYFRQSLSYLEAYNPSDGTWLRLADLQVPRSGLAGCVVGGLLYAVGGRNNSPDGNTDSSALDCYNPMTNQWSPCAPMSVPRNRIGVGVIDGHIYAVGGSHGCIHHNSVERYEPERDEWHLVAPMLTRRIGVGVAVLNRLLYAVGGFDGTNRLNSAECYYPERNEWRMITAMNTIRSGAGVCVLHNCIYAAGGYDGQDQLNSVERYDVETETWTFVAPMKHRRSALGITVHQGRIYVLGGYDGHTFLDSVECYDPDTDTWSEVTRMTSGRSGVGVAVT

`Cc1cc(C)c(C)c(S(=O)(=O)Nc2cc(N3CCCC(C(=O)O)C3)cc3ccccc23)c1C` (stereo not shown) [Example 12, 1-[4-[(2,3,5,6-tetramethylphenyl)sulfonylamino]-2-naphthyl]piperidine-3-carboxylic acid; 2,2,2-trifluoroacetic acid]: the IC50 was determined as 8.6 µM.

Molecule “1-[4-[(5-chloro-1,3-dimethyl-pyrazol-4-yl)sulfonylamino]-2-naphthyl]piperidine-3-carboxylic acid; 2,2,2-trifluoroacetic acid [Example 11]” showed an IC50 of 26.7 µM.

`CCCCCC(Oc1cc(NS(=O)(=O)c2c(C)c(C)cc(C)c2C)c2ccccc2c1)C(=O)O` (stereo not shown) [Example 5, 2-[[4-[(2,3,5,6-tetramethylphenyl)sulfonylamino]-2-naphthyl]oxy]heptanoic acid] returned an IC50 of 3.3 µM.

For the molecule `Cc1cc(C)c(C)c(S(=O)(=O)Nc2cc(CC(C(=O)O)C(F)(F)F)cc3ccccc23)c1C` (stereo not shown) [Example 10, 3,3,3-trifluoro-2-[[4-[(2,3,5,6-tetramethylphenyl)sulfonylamino]-2-naphthyl]methyl]propanoi c acid], the 50% inhibitory concentration (IC50) worked out at 15.7 µM.

Consider `Cc1cc(C)c(C)c(S(=O)(=O)Nc2cc(C3CCCC3C(=O)O)cc3ccccc23)c1C` (stereo not shown) [Example 3, 2-[4-[(2,3,5,6-tetramethylphenyl)sulfonylamino]-2-naphthyl]cyclopentaneca rboxylic acid], for which the IC50 stood at 5.2 µM.

Molecule `Cc1cc(C)c(C)c(S(=O)(=O)Nc2ccc(CC(C(=O)O)c3cccc(C(F)(F)F)c3)c3ccccc23)c1C` (stereo not shown) [Example 14, 3-[4-[(2,3,5,6-tetra-methylphenyl)sulfonylamino]-1-naphthyl]-2-[3-(trifluoromethyl)phenyl]pr opanoic acid] yielded an IC50 of 4 µM.

In turn, `Cc1cc(C)c(C)c(S(=O)(=O)Nc2ccc(C(CC(=O)O)c3ccccc3)c3ccccc23)c1C` (stereo not shown) [Example 13, 3-phenyl-3-[4-[(2,3,5,6-tetramethylphenyl)sulfonylamino]-1-naphthyl]propanoic acid] displayed a half-maximal inhibitory concentration (IC50) of 6.5 µM.

As to `CCCCCC(CC(=O)O)c1cc(NS(=O)(=O)c2c(C)c(C)cc(C)c2C)c2ccccc2c1` (stereo not shown) [Example 1, 3-[4-[(2,3,5,6-tetramethylphenyl)sulfonylamino]-2-naphthyl]octanoic acid], the IC50 was 13 µM.

Turning to `Cc1cc(C)c(C)c(S(=O)(=O)Nc2cc(C(CC(=O)O)c3ccccc3)cc3ccccc23)c1C` (stereo not shown) [Example 4, 3-phenyl-3-[4-[(2,3,5,6-tetramethylphenyl)sulfonylamino]-2-naphthyl]propanoic acid], the IC50 turned out to be 14.4 µM.

With `Cc1cc(C)c(C)c(S(=O)(=O)Nc2cc(C3=CCC(C(=O)O)CC3)cc3ccccc23)c1C` (stereo not shown) [Example 9, 4-[4-[(2,3,5,6-tetramethylphenyl)sulfonylamino]-2-naphthyl]cyclohex-3-ene-1-carboxylic acid], the half-inhibitory concentration (IC50) was found to be 2.9 µM.
